Holding throughout (assay): DSF 100 kinase selectivity screen;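 as to dTm: compound tested at 20 µM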
Assay type in all cases: binding

Assay [1] concerns ~100 representative kinases. The note with it: for dTm: Protein BRD, average of three replicates; for # >5K: number of proteins of the DSF panel with dTm >5K. As to the method:
(§1) Recombinant protein kinase domains with a concentration of 2 μM were mixed with a 20 μM compound solution in dimethyl sulfoxide (DMSO), 20 mM Hepes (pH 7.5), and 500 mM NaCl. SYPRO Orange (5000×, Invitrogen) was added as a fluorescence probe (1μl/ml). Subsequently, temperature-dependent protein unfolding profiles were measured using the QuantStudio 5 realtime PCR machine (Thermo Fisher Scientific, Waltham, MA, USA). […] The temperature was raised with a step rate of 3°C/min. […] Differences in melting temperature are given as ΔTm values in degrees Celsius. […]

The target of assay [2] is T1, ~100 representative kinases (Homo sapiens, UniProt P24941).
T1 construct: Recombinant protein kinase domains with a concentration of 2 μM
The note with it: Protein CDK2; average of three replicates. The protocol: as §1

Assay [3] has as its target T2, ~100 representative kinases (Homo sapiens, UniProt Q13627).
T2 construct: Recombinant protein kinase domains with a concentration of 2 μM
As to conditions: Protein DYRK1A; average of three replicates. As to the method:
as §1

The target of assay [4] is T3, ~100 representative kinases (Homo sapiens, UniProt Q9Y2H1).
T3 construct: Recombinant protein kinase domains with a concentration of 2 μM
The note with it: Protein STK38L; DSF; average of three replicates. The protocol:
as §1

The target in assay [5] is T4, ~100 representative kinases (Homo sapiens, UniProt P17948).
T4 construct: Recombinant protein kinase domains with a concentration of 2 μM
T4 sequence (P17948 27-1338): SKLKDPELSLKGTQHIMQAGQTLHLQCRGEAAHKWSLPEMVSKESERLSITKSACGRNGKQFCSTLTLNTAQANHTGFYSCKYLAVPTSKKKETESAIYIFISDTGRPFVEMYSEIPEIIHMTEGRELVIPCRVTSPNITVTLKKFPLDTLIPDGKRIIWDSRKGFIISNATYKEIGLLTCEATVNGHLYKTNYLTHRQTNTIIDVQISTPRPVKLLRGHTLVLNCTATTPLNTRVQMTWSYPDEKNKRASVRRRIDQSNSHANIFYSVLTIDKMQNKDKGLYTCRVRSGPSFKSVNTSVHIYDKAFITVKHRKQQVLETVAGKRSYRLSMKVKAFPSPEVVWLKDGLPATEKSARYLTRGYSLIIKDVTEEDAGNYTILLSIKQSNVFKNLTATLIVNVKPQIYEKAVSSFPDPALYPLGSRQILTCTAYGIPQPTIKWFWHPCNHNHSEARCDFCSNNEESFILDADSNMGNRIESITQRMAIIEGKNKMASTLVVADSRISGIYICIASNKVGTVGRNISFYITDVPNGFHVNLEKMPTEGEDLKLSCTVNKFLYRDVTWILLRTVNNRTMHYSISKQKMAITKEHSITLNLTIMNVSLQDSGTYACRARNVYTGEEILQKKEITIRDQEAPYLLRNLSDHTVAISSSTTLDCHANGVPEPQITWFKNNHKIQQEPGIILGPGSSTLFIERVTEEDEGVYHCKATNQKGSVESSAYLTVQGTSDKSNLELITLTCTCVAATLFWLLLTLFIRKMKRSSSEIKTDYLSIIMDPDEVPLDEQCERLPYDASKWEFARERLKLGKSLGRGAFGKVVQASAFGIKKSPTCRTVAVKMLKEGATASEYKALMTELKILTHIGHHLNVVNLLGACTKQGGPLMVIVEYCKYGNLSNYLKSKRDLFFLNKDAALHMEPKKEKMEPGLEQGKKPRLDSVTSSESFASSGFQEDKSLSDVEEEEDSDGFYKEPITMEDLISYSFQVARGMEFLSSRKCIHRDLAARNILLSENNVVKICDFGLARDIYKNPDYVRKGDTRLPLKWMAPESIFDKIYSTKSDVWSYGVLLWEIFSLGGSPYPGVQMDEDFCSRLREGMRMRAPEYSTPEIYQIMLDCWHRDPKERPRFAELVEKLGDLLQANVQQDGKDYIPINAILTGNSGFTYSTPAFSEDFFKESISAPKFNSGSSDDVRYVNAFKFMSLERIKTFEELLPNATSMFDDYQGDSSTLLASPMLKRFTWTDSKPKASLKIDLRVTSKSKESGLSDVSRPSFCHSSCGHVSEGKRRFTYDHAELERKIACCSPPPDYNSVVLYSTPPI
As to conditions: protein FLT1; average of three replicates. As to the method:
as §1

The target of assay [6] is T5, ~100 representative kinases (Homo sapiens, UniProt Q99640).
T5 construct: Recombinant protein kinase domains with a concentration of 2 μM
T5 sequence (Q99640 1-499): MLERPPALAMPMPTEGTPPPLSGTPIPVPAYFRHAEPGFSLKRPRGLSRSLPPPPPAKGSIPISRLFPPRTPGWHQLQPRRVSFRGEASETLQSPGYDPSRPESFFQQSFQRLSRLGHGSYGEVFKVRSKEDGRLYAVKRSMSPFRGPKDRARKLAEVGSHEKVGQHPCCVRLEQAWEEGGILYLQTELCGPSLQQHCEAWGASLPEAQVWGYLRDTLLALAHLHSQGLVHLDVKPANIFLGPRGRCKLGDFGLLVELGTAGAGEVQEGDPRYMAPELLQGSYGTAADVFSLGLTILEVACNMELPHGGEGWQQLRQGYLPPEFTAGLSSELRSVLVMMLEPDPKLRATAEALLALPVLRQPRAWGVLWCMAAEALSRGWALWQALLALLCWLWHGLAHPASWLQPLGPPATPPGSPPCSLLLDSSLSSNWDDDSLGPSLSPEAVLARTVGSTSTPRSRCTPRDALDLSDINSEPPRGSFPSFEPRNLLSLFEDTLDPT
The note with it: protein PKMYT1; average of three replicates. As to the method: as §1

The target in assay [7] is T6, ~100 representative kinases (Homo sapiens, UniProt Q13554).
T6 construct: Recombinant protein kinase domains with a concentration of 2 μM
T6 sequence (Q13554 whole entry, the tested form may be a part): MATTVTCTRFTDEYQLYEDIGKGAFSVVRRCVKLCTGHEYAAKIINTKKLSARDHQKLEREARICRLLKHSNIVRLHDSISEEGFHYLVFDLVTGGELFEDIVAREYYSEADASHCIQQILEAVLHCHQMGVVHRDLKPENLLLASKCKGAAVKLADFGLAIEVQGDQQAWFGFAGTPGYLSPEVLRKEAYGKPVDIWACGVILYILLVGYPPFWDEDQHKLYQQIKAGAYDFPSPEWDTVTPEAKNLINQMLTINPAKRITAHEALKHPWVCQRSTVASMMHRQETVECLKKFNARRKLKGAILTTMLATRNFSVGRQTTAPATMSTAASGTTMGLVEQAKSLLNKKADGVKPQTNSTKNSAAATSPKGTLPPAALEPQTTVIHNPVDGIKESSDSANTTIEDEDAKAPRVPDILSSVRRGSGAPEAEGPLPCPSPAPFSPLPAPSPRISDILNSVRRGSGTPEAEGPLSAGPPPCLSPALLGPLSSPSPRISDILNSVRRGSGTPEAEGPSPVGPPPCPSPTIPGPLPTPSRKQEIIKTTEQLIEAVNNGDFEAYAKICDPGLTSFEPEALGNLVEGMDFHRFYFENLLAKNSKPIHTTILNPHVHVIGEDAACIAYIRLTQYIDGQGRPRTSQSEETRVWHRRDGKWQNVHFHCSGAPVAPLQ
As to conditions: Protein CAMK2B; average of three replicates. The protocol: as §1

The target of assay [8] is T7, ~100 representative kinases (Homo sapiens, UniProt Q9NSY1).
T7 construct: Recombinant protein kinase domains with a concentration of 2 μM
As to conditions: Protein BMP2K; average of three replicates. As to the method: as §1

For assay [9], the target named is T8, ~100 representative kinases (Homo sapiens, UniProt P51813).
T8 construct: Recombinant protein kinase domains with a concentration of 2 μM
T8 sequence (P51813 1-675): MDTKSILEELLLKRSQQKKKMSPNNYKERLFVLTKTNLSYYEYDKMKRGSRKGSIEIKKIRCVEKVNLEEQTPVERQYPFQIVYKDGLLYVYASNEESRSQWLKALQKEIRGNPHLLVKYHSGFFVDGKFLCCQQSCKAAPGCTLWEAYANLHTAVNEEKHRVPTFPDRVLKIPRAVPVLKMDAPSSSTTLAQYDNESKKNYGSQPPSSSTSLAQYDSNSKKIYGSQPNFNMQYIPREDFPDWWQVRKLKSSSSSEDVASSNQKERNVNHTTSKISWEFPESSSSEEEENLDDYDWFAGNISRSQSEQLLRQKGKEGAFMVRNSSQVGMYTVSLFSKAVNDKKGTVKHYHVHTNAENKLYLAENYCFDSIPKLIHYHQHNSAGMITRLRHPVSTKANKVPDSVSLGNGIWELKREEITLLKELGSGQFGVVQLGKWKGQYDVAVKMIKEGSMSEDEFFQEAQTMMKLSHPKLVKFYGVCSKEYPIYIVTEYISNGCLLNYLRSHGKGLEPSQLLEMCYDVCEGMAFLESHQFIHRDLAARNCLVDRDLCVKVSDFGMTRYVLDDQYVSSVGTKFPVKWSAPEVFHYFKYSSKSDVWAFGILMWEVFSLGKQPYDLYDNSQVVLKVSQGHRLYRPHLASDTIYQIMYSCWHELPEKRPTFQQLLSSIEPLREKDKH
As to conditions: Protein BMX; average of three replicates. As to the method: as §1

Assay [10] concerns the target T9, ~100 representative kinases (Homo sapiens, UniProt Q9H4A3).
T9 construct: Recombinant protein kinase domains with a concentration of 2 μM
The note with it: Protein WNK1; DSF; average of three replicates. The protocol:
as §1

Assay [11] concerns the target T10, ~100 representative kinases (Homo sapiens, UniProt P49674).
T10 construct: Recombinant protein kinase domains with a concentration of 2 μM
As to conditions: Protein CSNK1E; average of three replicates. As to the method: as §1

Assay [12] has as its target T11, ~100 representative kinases (Homo sapiens, UniProt Q92630).
T11 construct: Recombinant protein kinase domains with a concentration of 2 μM
T11 sequence (Q92630 1-601): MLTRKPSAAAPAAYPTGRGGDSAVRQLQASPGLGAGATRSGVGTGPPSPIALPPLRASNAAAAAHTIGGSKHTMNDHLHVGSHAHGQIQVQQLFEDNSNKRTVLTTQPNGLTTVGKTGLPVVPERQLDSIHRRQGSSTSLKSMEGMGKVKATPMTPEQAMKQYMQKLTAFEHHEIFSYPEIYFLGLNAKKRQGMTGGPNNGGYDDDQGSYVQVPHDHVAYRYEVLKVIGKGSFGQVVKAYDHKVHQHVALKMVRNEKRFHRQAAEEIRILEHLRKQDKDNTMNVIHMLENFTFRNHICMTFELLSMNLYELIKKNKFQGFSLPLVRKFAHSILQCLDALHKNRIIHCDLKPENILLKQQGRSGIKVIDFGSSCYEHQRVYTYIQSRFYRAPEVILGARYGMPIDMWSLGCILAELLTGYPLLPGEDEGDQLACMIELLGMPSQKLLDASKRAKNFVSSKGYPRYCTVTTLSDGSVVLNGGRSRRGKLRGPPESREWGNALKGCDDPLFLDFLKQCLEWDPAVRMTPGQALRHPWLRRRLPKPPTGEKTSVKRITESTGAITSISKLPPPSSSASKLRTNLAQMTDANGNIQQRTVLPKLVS
The note with it: Protein DYRK2; average of three replicates. The protocol:
as §1

Assay [13] deals with T12, ~100 representative kinases (Homo sapiens, UniProt Q9UPE1).
T12 construct: Recombinant protein kinase domains with a concentration of 2 μM
T12 sequence (Q9UPE1 whole entry, the tested form may be a part): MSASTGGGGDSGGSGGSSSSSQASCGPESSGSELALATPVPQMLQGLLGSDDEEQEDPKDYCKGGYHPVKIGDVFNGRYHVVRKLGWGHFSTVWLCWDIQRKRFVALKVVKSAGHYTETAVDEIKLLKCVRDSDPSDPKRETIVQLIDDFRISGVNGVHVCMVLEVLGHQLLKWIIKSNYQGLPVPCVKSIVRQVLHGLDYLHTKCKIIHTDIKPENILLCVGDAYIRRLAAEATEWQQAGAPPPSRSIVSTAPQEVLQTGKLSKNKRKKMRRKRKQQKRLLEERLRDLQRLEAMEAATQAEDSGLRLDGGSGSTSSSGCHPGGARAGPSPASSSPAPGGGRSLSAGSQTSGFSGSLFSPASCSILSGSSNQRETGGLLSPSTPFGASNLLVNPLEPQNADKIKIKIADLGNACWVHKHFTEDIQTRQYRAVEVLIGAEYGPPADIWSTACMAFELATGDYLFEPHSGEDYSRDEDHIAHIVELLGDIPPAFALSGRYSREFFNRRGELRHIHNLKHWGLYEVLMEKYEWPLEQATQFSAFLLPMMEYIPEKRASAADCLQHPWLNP
As to conditions: Protein SRPK3; DSF; average of three replicates. As to the method:
as §1

Setting [14] is: number of kinases with thermal shift >5 K divided by total number of kinases screened.
Setting [15] is: selectivity score: # >5K divided by # of proteins tested in the DSF panel.

The values that follow come from publication PMC12136037, “Type II kinase inhibitors that target Parkinson’s disease–associated LRRK2” (Science Advances, 2025).

T9 sequence (Q9H4A3 whole entry, the tested form may be a part): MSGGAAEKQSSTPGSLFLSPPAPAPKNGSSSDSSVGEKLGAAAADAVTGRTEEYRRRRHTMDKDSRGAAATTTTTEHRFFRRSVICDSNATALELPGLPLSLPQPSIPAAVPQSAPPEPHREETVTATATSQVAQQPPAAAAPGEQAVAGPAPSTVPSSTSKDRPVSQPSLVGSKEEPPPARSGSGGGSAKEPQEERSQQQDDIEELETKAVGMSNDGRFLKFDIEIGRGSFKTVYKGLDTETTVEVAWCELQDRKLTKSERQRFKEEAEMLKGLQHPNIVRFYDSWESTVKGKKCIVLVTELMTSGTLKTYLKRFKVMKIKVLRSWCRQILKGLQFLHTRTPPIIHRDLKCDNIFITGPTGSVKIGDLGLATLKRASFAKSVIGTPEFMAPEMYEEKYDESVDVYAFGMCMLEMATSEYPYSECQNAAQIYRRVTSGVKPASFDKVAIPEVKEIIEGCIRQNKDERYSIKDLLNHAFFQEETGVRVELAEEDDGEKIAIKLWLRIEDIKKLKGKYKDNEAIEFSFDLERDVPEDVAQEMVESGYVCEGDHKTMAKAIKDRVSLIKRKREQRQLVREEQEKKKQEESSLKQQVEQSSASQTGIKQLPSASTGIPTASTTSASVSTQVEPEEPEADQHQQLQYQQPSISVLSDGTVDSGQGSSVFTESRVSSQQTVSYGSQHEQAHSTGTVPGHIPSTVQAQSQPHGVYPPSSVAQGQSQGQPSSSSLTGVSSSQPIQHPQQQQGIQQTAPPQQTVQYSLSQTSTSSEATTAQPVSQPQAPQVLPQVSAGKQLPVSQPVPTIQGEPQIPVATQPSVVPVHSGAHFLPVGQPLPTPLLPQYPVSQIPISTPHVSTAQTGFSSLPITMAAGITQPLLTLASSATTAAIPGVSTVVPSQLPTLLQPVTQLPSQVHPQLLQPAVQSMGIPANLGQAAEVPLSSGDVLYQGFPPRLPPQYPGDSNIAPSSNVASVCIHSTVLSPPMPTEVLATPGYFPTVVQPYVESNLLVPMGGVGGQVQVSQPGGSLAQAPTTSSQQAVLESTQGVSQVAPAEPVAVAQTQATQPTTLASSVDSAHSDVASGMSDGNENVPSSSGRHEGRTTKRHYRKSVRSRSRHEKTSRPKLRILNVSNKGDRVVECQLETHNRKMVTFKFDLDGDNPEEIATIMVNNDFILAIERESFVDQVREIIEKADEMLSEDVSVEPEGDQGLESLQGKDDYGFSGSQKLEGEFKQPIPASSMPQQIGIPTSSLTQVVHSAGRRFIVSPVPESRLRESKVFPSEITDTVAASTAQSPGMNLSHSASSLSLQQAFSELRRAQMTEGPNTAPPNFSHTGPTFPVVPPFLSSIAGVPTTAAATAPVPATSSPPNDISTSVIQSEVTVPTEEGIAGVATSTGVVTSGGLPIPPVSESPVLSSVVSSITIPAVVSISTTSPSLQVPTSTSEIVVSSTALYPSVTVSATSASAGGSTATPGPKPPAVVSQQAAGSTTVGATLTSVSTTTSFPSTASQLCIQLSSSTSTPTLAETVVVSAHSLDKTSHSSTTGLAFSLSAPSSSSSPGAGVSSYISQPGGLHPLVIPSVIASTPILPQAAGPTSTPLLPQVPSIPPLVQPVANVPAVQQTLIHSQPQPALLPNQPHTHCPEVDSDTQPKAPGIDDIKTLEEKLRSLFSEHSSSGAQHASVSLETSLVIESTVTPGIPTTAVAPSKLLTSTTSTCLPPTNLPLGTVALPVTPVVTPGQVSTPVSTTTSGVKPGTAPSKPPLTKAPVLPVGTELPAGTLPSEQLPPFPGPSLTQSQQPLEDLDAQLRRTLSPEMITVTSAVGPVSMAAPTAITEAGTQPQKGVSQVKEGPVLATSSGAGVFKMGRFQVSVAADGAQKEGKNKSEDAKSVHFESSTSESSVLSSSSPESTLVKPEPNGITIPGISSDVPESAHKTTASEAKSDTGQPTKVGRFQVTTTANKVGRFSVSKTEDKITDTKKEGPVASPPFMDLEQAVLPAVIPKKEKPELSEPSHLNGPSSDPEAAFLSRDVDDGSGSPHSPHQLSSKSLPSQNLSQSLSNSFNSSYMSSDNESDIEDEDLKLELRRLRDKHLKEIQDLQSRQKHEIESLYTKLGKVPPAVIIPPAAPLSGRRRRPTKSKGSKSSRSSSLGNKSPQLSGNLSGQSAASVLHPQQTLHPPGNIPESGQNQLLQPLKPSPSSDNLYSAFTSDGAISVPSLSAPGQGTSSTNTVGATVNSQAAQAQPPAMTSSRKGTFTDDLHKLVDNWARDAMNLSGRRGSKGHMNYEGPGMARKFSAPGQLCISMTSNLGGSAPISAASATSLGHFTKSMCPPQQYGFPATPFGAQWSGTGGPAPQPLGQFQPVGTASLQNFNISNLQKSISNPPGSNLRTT

On to `O=C(Nc1cccc(-c2c[nH]c3ncnc(N4CCOCC4)c23)c1)C1(C(=O)Nc2ccc(F)c(Br)c2F)CC1` [Compound 26], for which, in [1] (DSF selectivity panel, thermal shift >5 K), the “S (5 K) / share of screened kinases stabilized” value was 14%. The dTm in assay [1] is reported as 1.43 K; in assay [2] it was 3.97 K; in [3], 0.19 K; in assay [4] it was -2.16 K; in assay [5] it was 2.22 K; in assay [6], -0.69 K. The dTm in assay [7] is reported as 1.60 K; in assay [8], 9.57 K; in [9], -0.35 K; in [10], 1.13 K; in assay [11], 4.57 K; in assay [12] it was 4.70 K. In assay [13], this compound showed a dTm of 2.55 K. Also, the entries for the “S(5K)” value in [1] (setting [14]) and in assay [1] (setting [15]) were 0.14 and 0.144, respectively. For the same compound, the “# >5K” value in [1] turned out to be 15.
Consider `O=C(Nc1cccc(-c2c[nH]c3ncnc(N4CCOCC4)c23)c1)C1(C(=O)Nc2cccc3c2CCC3)CC1` [Compound 11], for which the dTm in [1] is recorded as 1.00 K; in assay [2], 4.66 K; in assay [3], 0.32 K; in assay [4], 0.00 K; in [5], 1.96 K; in assay [6], -0.88 K. Also, the dTm turned out to be 1.38 K in assay [7]; 8.56 K in [8]; 1.17 K in [9]; 0.35 K in assay [10]; 4.91 K in [11]; 4.30 K in assay [12]. Besides, the dTm in assay [13] amounted to 3.94 K. In addition, the “S(5K)” value came out at 0.15 in assay [1] (setting [14]) and 0.154 in assay [1] (setting [15]). Also, the “# >5K” value in assay [1] is 16.
With `O=C(Nc1ccc(F)cc1)C1(C(=O)Nc2cccc(-c3c[nH]c4ncnc(N5CCOCC5)c34)c2)CC1` [Compound 2], the dTm in assay [1] is listed as -1.00 K; in [2], 4.78 K; in [3] it was 4.73 K; in assay [4], -0.20 K; in assay [5], 3.90 K; in assay [6], -2.28 K. In addition, the dTm in [7] was 0.69 K; in [8], 6.37 K; in assay [9] it was 0.39 K; in assay [10], -0.45 K; in assay [11], 4.37 K; in assay [12] it was 7.92 K. In [13], this compound returned a dTm of 6.73 K. In addition, the entries for the “S(5K)” value in assay [1] (setting [14]) and in [1] (setting [15]) were 0.28 and 0.280, respectively. Further, the “# >5K” value in assay [1] was 28.
For `CCSc1nc(NC)c2c(-c3cccc(NC(=O)Nc4cc(C(C)(C)C)nn4-c4ccc(C)cc4)c3)c[nH]c2n1` [Compound 32], the dTm in assay [1] is recorded as -0.35 K; in [2], 0.83 K; in assay [3], 0.57 K; in assay [4], -0.75 K; in assay [5], 1.15 K; in assay [6], 0.22 K. The dTm in assay [7] is listed as 0.33 K; in assay [8], 0.75 K; in assay [9], -0.26 K; in assay [10], 0.83 K; in assay [11] it was -0.41 K; in assay [12], 6.49 K. For the same compound, in assay [13], the dTm came to 1.35 K. Further, the “number of kinases stabilized (>5 K)” value in [1] (Rebastinib 96 kinases screened, RN341 103 kinases screened) is recorded as 10. Besides, the “S(5K)” value was 0.10 in [1] (setting [14]) and 0.097 in [1] (setting [15]). In assay [1], the “# >5K” value was 10.
As to `O=C(Nc1cccc(-c2c[nH]c3ncnc(N4CCOCC4)c23)c1)C1(C(=O)Nc2ccc(F)c(Br)c2)CC1` [Compound 19], the dTm in [1] is listed as 1.82 K; in assay [2], 7.42 K; in assay [3] it was 1.71 K; in assay [4], 0.00 K; in [5], 3.75 K; in [6] it was -0.61 K. The dTm amounted to 2.00 K in assay [7]; 8.80 K in assay [8]; 0.24 K in assay [9]; 0.64 K in [10]; 6.33 K in assay [11]; 3.42 K in [12]. Besides, the dTm in [13] came to 6.39 K. The “S(5K)” value in [1] (setting [14]) was determined as 0.31; in assay [1] (setting [15]), 0.308. For the same compound, the “# >5K” value in assay [1] stood at 32.
Take `COc1cc(NC(=O)C2(C(=O)Nc3cccc(-c4c[nH]c5ncnc(N6CCOCC6)c45)c3)CC2)ccc1F` [Compound 21]: the dTm in assay [1] was -1.43 K; in assay [2], 4.67 K; in assay [3], 2.83 K; in assay [4], -0.18 K; in assay [5], 4.43 K; in assay [6], -0.64 K. Moreover, the dTm is given as 1.15 K in [7]; 6.71 K in assay [8]; 0.38 K in assay [9]; -0.19 K in assay [10]; 5.78 K in [11]; 8.53 K in [12]. The dTm in [13] is 6.98 K. The “S(5K)” value worked out at 0.28 in [1] (setting [14]) and 0.280 in [1] (setting [15]). In [1], the “# >5K” value turned out to be 28.
